According to patent US20250114345A1, “COMPOUNDS AND COMPOSITIONS AS CBP/P300 DEGRADERS AND USES THEREOF” (Oncopia Therapeutics, Inc. d/b/a/ SK Life Science Labs, priority 2023, published 2025):

What was measured:
p300 = biological target: T1, p300 (Homo sapiens, UniProt Q09472); assay: P300 degradation, HiBit technology in A549 P300 HiBit cells (2 h); assay type: cell-based; conditions: 2 hrs post treatment; for Dmax: A549, A549 P300 HiBit cells; for DC50: A549 P300 HiBit cells
T1 construct: host or cells: A549 P300 HiBit cells
T1 sequence (Q09472 whole entry): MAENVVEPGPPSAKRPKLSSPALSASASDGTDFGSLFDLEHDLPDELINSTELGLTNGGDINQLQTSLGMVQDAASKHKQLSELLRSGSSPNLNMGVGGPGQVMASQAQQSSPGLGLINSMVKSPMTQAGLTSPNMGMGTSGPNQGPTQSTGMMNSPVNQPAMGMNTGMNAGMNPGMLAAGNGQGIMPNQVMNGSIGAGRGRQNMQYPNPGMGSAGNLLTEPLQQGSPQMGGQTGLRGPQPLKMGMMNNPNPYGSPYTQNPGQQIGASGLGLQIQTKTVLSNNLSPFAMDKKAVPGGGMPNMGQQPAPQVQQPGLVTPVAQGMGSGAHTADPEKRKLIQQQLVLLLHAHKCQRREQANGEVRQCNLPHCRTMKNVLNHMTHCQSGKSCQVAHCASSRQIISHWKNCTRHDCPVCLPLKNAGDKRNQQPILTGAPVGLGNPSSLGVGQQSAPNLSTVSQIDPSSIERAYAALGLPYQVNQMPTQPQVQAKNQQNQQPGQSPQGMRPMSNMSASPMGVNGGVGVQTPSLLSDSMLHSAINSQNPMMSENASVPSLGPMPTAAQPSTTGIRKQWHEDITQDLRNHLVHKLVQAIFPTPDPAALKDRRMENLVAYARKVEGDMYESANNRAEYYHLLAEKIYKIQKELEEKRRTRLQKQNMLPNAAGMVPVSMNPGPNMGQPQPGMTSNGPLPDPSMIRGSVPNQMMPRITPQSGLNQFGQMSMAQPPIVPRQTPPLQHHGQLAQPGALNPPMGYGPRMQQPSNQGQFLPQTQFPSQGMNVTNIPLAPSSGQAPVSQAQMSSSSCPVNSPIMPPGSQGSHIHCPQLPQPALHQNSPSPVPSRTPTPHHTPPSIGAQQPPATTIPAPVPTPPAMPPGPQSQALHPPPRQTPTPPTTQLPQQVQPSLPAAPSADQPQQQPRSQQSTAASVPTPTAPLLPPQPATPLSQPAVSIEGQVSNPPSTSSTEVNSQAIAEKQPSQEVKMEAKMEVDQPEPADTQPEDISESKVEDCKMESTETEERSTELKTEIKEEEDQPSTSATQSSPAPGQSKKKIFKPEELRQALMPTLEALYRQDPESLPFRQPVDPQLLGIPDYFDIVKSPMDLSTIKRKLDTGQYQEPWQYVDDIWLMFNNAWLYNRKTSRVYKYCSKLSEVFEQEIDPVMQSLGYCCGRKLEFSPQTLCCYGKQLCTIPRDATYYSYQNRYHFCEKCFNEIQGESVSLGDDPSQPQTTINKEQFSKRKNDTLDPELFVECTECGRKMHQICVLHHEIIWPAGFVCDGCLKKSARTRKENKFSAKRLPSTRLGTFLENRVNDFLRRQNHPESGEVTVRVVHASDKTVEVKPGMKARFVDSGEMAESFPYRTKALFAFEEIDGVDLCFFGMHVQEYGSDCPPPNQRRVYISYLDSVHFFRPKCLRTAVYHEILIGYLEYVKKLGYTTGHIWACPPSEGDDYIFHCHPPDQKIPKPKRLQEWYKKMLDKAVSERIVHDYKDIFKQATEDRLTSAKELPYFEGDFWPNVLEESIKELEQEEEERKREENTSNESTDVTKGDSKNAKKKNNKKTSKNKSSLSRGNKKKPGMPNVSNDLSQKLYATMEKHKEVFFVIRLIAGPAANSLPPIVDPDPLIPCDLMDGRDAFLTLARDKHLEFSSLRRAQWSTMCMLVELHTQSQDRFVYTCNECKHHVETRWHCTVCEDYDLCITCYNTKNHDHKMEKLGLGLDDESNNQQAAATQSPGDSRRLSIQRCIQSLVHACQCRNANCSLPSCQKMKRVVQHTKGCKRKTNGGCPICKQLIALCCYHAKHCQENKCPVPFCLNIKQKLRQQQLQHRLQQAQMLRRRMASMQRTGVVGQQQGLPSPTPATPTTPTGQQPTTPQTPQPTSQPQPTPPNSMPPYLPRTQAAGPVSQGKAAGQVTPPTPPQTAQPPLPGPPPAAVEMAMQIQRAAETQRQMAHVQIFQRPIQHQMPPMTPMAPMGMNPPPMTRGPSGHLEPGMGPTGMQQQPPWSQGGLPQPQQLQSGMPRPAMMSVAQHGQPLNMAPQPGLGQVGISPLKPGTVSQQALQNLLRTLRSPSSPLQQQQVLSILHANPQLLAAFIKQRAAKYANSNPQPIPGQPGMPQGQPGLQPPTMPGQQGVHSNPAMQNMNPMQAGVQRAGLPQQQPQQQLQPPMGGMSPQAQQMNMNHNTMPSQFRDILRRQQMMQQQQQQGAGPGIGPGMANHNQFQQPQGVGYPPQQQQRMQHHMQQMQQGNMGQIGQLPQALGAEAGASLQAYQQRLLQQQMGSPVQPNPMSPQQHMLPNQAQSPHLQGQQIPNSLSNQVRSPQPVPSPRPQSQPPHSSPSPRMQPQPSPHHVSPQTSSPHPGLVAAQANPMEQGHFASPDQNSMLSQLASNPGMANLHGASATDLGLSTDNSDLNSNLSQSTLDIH
Procedure, shortened: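 HiBiT knock-in A549 cells received compound in serial dilution at 37 °C under 5% CO2. Remaining tagged protein was quantified by lytic HiBiT luminescence after 10 min shaking at room temperature, yielding potency and maximal degradation.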

CBP = biological target: T2, CBP (Homo sapiens, UniProt Q92793); assay: CBP degradation, HiBit technology in A549 CBP HiBit cells (24 h); assay type: cell-based; conditions: 24 hrs post treatment
T2 construct: host or cells: A549 CBP HiBit cells
T2 sequence (Q92793 whole entry): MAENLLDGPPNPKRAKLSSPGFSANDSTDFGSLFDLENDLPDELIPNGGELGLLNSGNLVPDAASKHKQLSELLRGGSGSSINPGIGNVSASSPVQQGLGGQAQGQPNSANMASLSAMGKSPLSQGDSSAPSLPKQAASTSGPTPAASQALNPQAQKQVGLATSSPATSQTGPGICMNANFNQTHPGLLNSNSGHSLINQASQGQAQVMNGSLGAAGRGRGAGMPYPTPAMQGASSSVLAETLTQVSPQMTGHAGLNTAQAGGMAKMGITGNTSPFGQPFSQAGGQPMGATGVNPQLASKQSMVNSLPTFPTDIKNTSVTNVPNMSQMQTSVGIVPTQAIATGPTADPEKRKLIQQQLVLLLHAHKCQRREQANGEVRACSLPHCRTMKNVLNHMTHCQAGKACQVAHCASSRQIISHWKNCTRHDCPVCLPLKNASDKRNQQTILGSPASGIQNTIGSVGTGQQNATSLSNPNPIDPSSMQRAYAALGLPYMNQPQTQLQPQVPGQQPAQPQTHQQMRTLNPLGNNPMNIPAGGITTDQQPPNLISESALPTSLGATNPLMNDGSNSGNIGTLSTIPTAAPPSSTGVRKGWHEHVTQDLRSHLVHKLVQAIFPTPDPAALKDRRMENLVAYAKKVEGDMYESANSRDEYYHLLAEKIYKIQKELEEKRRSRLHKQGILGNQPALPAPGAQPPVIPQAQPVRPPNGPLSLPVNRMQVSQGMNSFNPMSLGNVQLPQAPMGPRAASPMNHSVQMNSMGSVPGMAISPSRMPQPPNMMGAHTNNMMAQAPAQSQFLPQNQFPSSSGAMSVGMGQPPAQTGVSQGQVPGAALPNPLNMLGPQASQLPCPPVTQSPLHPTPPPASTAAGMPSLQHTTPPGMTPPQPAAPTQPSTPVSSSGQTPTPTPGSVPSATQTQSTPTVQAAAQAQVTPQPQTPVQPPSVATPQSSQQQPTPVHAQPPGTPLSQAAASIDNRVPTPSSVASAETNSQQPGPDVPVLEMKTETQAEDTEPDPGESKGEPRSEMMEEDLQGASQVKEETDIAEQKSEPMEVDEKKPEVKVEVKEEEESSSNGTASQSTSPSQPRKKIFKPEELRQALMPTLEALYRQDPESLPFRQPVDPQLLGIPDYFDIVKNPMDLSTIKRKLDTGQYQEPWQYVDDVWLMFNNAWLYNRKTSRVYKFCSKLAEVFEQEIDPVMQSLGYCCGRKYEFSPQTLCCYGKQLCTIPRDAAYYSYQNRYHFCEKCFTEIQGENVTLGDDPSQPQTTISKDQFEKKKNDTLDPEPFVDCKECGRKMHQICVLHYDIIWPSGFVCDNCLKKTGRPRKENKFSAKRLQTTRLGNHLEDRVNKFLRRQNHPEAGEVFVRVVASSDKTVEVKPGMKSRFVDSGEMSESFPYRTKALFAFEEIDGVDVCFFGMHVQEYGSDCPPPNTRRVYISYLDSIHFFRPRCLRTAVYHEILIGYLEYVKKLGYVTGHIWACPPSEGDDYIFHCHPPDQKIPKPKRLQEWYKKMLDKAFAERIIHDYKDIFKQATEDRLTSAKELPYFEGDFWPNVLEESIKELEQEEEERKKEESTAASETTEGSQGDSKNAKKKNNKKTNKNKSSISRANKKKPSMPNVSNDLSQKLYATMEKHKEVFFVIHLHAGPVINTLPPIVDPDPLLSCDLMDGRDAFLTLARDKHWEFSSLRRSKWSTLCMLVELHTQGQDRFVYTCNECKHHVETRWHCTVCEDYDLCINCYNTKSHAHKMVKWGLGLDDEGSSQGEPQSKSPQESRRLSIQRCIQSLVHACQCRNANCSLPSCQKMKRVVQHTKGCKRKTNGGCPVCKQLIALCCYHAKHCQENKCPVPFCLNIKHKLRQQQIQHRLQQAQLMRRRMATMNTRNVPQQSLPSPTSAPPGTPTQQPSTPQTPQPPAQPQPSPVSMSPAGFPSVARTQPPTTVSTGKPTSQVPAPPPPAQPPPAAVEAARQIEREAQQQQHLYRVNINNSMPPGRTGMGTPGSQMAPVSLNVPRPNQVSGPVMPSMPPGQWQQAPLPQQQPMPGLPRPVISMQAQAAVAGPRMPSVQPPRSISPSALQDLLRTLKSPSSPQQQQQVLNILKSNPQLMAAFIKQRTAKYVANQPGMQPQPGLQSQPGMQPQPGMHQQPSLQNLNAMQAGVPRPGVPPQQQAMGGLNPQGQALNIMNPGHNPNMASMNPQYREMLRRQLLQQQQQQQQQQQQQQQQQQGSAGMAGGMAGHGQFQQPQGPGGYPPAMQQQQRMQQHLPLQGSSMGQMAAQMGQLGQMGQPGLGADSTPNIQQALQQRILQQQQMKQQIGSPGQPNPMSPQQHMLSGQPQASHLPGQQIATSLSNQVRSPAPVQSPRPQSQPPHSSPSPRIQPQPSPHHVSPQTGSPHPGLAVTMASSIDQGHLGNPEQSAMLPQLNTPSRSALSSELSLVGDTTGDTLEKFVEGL
Method: p300 and CBP degradation potency and Dmax were determined using in cell western (ICW) assay technology in H1299 cells or HiBit technology in A549 HiBit cells.
A549 P300 HiBit and A549 CBP HiBit cells were plated in separate 384-well, TC treated, white-opaque, flat-bottomed microplate. Cells were plated at a cell density of 0.2×10^4 cells per well in assay media comprised of F-12K, 10% heat inactivated FBS, and 1% penicillin/streptomycin. Assay microplates containing HiBit cells were placed in a 37° C., 5% CO2, tissue culture incubator and left to equilibrate overnight. The next day cells were treated with serial dilutions of test compound made up of 10 mM stock solutions in DMSO. 384-Well plates containing treated cells were then placed back into a 37° C., 5% CO2, tissue culture incubator. Assay microplates containing A549 P300 HiBit cells were incubated for 2 hrs post treatment before P300 destruction was assessed, while microplates containing A549 CBP HiBit cells were incubated for 24 hrs post treatment before CBP destruction was determined. On the day of each assay time point, microplates were removed from the tissue culture incubator and prepared HiBit Lytic detection buffer (Promega, cat #N3O40) was added to each plate. Plates were covered with aluminum foil and incubated for ten minutes at room temperature on an orbital shaker. After incubation, luminescent signal of each plate was measured using the Envision instrument (Perkin Elmer).

Dmax (p300) [%] | DC50 (p300) [nM] | DC50 (CBP) [nM] | Dmax (CBP) [%] | SMILES
> 80 | < 1 | 1 to 9.9 | 40 to 59 | Cc1cc(-c2cc3c(cn2)N(c2cc(C(C)C)c4c(c2)n(C)c(=O)n4C)CCC3)cnc1C(=O)NCC#Cc1ccn2ncc(C3CCC(=O)NC3=O)c2c1 (centres unmarked) [Example A238, N-(3-(3-(2,6-dioxo-piperidin-3-yl)pyrazolo[1,5-a]pyridin-5-yl)prop-2-yn-1-yl)-5-(1-(7-isopropyl-1,3-dimethyl-2-oxo-2,3-dihydro-1H-benzo[d]imidazol-5-yl)-1,2,3,4-tetrahydro-1,7-naphthyridin-6-yl)-3-methylpicolinamide]
> 80 | 1 to 9.9 | > 1000 | < 20 | CC(C)c1cc(-c2cccc3cc(-c4ccc(C(=O)NCC#Cc5cnc6c(c5)c(C5CCC(=O)NC5=O)nn6C)nc4)ncc23)cc2c1n(C)c(=O)n2C (centres unmarked) [Example A221, N-(3-(3-(2,6-dioxo-piperidin-3-yl)-1-methyl-1H-pyrazolo [3,4-b]pyridin-5-yl)prop-2-yn-1-yl)-5-(8-(7-isopropyl-1,3-dimethyl-2-oxo-2,3-dihydro-1H-benzo[d]imidazol-5-yl)isoquinolin-3-yl)picolinamide]
> 80 | < 1 | 1 to 9.9 | 60 to 79 | Cn1c(=O)n(C)c2c(N3CCC(C)(O)CC3)cc(-c3cccc4cc(-c5ccc(C(=O)NCC#Cc6cccc(NC7CCC(=O)NC7=O)c6)nc5)ncc34)cc21 (centres unmarked) [Example A271, N-(3-(3-((2,6-dioxopiperidin-3-yl)amino)phenyl)prop-2-yn-1-yl)-5-(8-(7-(4-hydroxy-4-methylpiperidin-1-yl)-1,3-dimethyl-2-oxo-2,3-dihydro-1H-benzo[d]imidazol-5-yl)isoquinolin-3-yl)picolinamide]
> 80 | 1 to 9.9 | 10 to 99 | 60 to 79 | CC(C)c1cc(-c2cccc3cc(-c4ccc(C(=O)NCC#Cc5ccc6c(c5)n(C5CCC(=O)NC5=O)c(=O)n6C)nc4)ncc23)cc2c1n(C)c(=O)n2C (centres unmarked) [Example A18, N-(3-(3-(2,6-Dioxopiperidin-3-yl)-1-methyl-2-oxo-2,3-dihydro-1H-benzo[d]imidazol-5-yl)prop-2-yn-1-yl)-5-(8-(7-isopropyl-1,3-dimethyl-2-oxo-2,3-dihydro-1H-benzo[d]imidazol-5-yl)isoquinolin-3-yl)picolinamide]
> 80 | 1 to 9.9 | > 1000 | < 20 | CCn1c(=O)n(C)c2c(N3CCOCC3)nc(-c3cccc4cc(-c5ccc(C(=O)NCC#Cc6ccc7occ(C8CCC(=O)NC8=O)c7c6)nc5)ncc34)cc21 (centres unmarked) [Example A108, N-(3-(3-(2,6-dioxo-piperidin-3-yl)benzofuran-5-yl)prop-2-yn-1-yl)-5-(8-(1-ethyl-3-methyl-4-morpholino-2-oxo-2,3-dihydro-1H-imidazo[4,5-c]pyridin-6-yl)isoquinolin-3-yl)picolinamide]
> 80 | < 1 | 100 to 999 | < 20 | CC(C)c1cc(N2CCCc3nc(-c4ccc(C(=O)NCC#Cc5cc6c(C7CCC(=O)NC7=O)cccc6o5)nc4)ncc32)cc2c1n(C)c(=O)n2C (centres unmarked) [Example A237, N-(3-(4-(2,6-dioxo-piperidin-3-yl)benzofuran-2-yl)prop-2-yn-1-yl)-5-(5-(7-isopropyl-1,3-dimethyl-2-oxo-2,3-dihydro-1H-benzo [d]imidazol-5-yl)-5,6,7,8-tetrahydro-pyrido[3,2-d]pyrimidin-2-yl)picolinamide]
> 80 | > 1000 | > 1000 | < 20 | CC(C)c1cc(N2CCOc3nc(-c4ccc(C(=O)NCC#Cc5ccc6occ(C7CCC(=O)NC7=O)c6c5)nc4)ncc32)cc2c1n(C)c(=O)n2C (centres unmarked) [Example A89, N-(3-(3-(2,6-dioxo-piperidin-3-yl)benzofuran-5-yl)prop-2-yn-1-yl)-5-(5-(7-isopropyl-1,3-dimethyl-2-oxo-2,3-dihydro-1H-benzo[d]imidazol-5-yl)-6,7-dihydro-5H-pyrimido [4,5-b][1,4]oxazin-2-yl)picolinamide]
> 80 | 1 to 9.9 | > 1000 | < 20 | CC(C)c1cc(-c2cccc3cc(-c4ccc(C(=O)NCC#Cc5cc(F)c6occ(C7CCC(=O)NC7=O)c6c5)nc4)ncc23)cc2c1n(C)c(=O)n2C (centres unmarked) [Example A254, N-(3-(3-(2,6-dioxo-piperidin-3-yl)-7-fluorobenzofuran-5-yl)prop-2-yn-1-yl)-5-(8-(7-isopropyl-1,3-dimethyl-2-oxo-2,3-dihydro-1H-benzo [d]imidazol-5-yl)isoquinolin-3-yl)picolinamide]
> 80 | 1 to 9.9 | 100 to 999 | 20 to 39 | CCc1cc(N(C)c2ccc(-c3cnc(C(=O)NCC#Cc4cccc(NC5CCC(=O)NC5=O)c4)c(C)c3)nc2)c2cc(C)c(=O)n(C)c2c1 (centres unmarked) [Example B16, N-(3-(3-((2,6-Dioxopiperidin-3-yl)amino)phenyl)prop-2-yn-1-yl)-5-((7-ethyl-1,3-dimethyl-2-oxo-1,2-dihydroquinolin-5-yl)(methyl)amino)-5′-methyl-[2,3′-bipyridine]-6′-carboxamide]
> 80 | 1 to 9.9 | > 1000 | < 20 | Cc1cc(-c2ncc(N(C)c3cc(C(C)C)c4c(c3)n(C)c(=O)n4C)cn2)cnc1C(=O)NCC#Cc1cccc(NC2CCC(=O)NC2=O)c1 (centres unmarked) [Example A51, N-(3-(3-((2,6-dioxopiperidin-3-yl)amino)phenyl)prop-2-yn-1-yl)-5-(5-((7-isopropyl-1,3-dimethyl-2-oxo-2,3-dihydro-1H-benzo [d]imidazol-5-yl)(methyl)amino)pyrimidin-2-yl)-3-methylpicolinamide]
> 80 | < 1 | > 1000 | < 20 | CC(C)c1cc(-c2cccc3cc(-c4ccc(C(=O)NCC#Cc5ccc6ncn(C7CCC(=O)NC7=O)c6c5)nc4)ncc23)cc2c1n(C)c(=O)n2C (centres unmarked) [Example A15, N-(3-(1-(2,6-Dioxopiperidin-3-yl)-1H-benzo[d]imidazol-6-yl)prop-2-yn-1-yl)-5-(8-(7-isopropyl-1,3-dimethyl-2-oxo-2,3-dihydro-1H-benzo[d]imidazol-5-yl)isoquinolin-3-yl)picolinamide]
> 80 | < 1 | 100 to 999 | < 20 | Cc1c(-c2ccc(C(=O)NCC#Cc3ccc4occ(C5CCC(=O)NC5=O)c4c3)nc2)ncc2c(-c3ccc4c(c3)n(C)c(=O)n4C)cccc12 (centres unmarked) [Example A63, 5-(8-(1,3-dimethyl-2-oxo-2,3-dihydro-1H-benzo[d]imidazol-5-yl)-4-methylisoquinolin-3-yl)-N-(3-(3-(2,6-dioxo-piperidin-3-yl)benzofuran-5-yl)prop-2-yn-1-yl)picolinamide]
 |  | > 1000 | < 20 | CC(C)c1cc(-c2cccc3cc(-c4ccc(C(=O)NCC#Cc5ccc6c(c5)n(C)c(=O)n6C5CCC(=O)NC5=O)nc4)ncc23)cc2c1n(C)c(=O)n2C (centres unmarked) [Example A36, N-(3-(1-(2,6-Dioxopiperidin-3-yl)-3-methyl-2-oxo-2,3-dihydro-1H-benzo[d]imidazol-5-yl)prop-2-yn-1-yl)-5-(8-(7-isopropyl-1,3-dimethyl-2-oxo-2,3-dihydro-1H-benzo[d]imidazol-5-yl)isoquinolin-3-yl)picolinamide]
 |  | 10 to 99 | 20 to 39 | Cc1cc(-c2cc3cccc(-c4cc(C(C)C)c5c(c4)n(C)c(=O)n5C)c3cn2)cnc1C(=O)NCC#Cc1ccc2occ(C3CCC(=O)NC3=O)c2c1 (centres unmarked) [Example A35, N-(3-(3-(2,6-Dioxopiperidin-3-yl)benzofuran-5-yl)prop-2-yn-1-yl)-5-(8-(7-isopropyl-1,3-dimethyl-2-oxo-2,3-dihydro-1H-benzo[d]imidazol-5-yl)isoquinolin-3-yl)-3-methylpicolinamide]
> 80 | 1 to 9.9 |  |  | CC(C)c1cc(-c2ncc(N(C)c3cc(C(C)C)c4c(c3)n(C)c(=O)n4C)cn2)cnc1C(=O)NCC#Cc1ccc2occ(C3CCC(=O)NC3=O)c2c1 (centres unmarked) [Example A71, N-(3-(3-(2,6-dioxopiperidin-3-yl)benzofuran-5-yl)prop-2-yn-1-yl)-3-isopropyl-5-(5-((7-isopropyl-1,3-dimethyl-2-oxo-2,3-dihydro-1H-benzo[d]imidazol-5-yl)(methyl)amino)pyrimidin-2-yl)picolinamide]
> 80 | 10 to 99 |  |  | CC(C)c1cc(N2CCC(F)(F)c3cc(-c4ccc(C(=O)NCC#Cc5ccc6occ(C7CCC(=O)NC7=O)c6c5)nc4)ccc32)cc2c1n(C)c(=O)n2C (centres unmarked) [Example A142, 5-(4,4-difluoro-1-(7-isopropyl-1,3-dimethyl-2-oxo-2,3-dihydro-1H-benzo[d]imidazol-5-yl)-1,2,3,4-tetrahydroquinolin-6-yl)-N-(3-(3-(2,6-dioxopiperidin-3-yl)benzofuran-5-yl)prop-2-yn-1-yl)picolinamide]
